{"source": "patent US6472381B1", "about": "“Method of treating psoriasis” (Biomas Inc., priority 2001, dated 2002)", "system": "psoriasis", "test": "Separate tests of the single agents for treating psoriasis", "format": "in vivo, human", "conditions": "agent used alone", "description": "Salicylic acid alone was ineffective."}
{"smiles": "O=C(O)c1ccccc1O", "note": "[Salicylic acid, salicylic acid]", "values": [{"measurement": "efficacy for treating psoriasis", "value": "ineffective"}]}
{"smiles": "Cl[Te]1(Cl)(Cl)OCCO1.N", "note": "[ammonium trichloro (dioxoethylene-O,O′) tellurate]", "values": [{"measurement": "efficacy for treating psoriasis", "value": "effective for treating psoriasis but worked very slowly"}]}
